Test results reported in ChEMBL document CHEMBL5523751, “Discovery of Novel Diaryl-Substituted Fused Heterocycles Targeting Katanin and Tubulin with Potent Antitumor and Antimultidrug Resistance Efficacy” (J Med Chem, 2024).
The source made the active and inactive calls. The rule behind the calls is not given here.

How the values were obtained:
[1] = biological target: Katanin p60 ATPase-containing subunit A1 (Homo sapiens, UniProt O75449); test: Induction of thermal stabilization in N-terminal human Katanin p60 (8 to 229 residues) expressed in Escherichia coli Rosetta (DE3) at 10 uM by thermal shift assay
[2] = system: MCF7; test: Effect on katanin p60 protein level in katanin knockdown human MCF7 cells measured after 48 to 72 hrs by immunoblot analysis; type: functional, cell-based; settings: time 48-72 hrs
[3] = system: MCF7; test: Upregulation of histone H3 phosphorylation level in human MCF7 cells at 1 to 10 nM by Western blot analysis; type: functional, cell-based; settings: dose 1-10 nM
[4] = system: MCF7; test: Induction of apoptosis in human MCF7 cells assessed as viable cells at 20 nM measured after 48 hrs by annexin-FITC and propidium iodide staining based flow cytometry analysis (reference value: 94.69%); type: functional; settings: read-out: Activity
[5] = system: MCF7; test: Induction of apoptosis in human MCF7 cells assessed as early apoptotic cells at 20 nM measured after 48 hrs by annexin-FITC and propidium iodide staining based flow cytometry analysis (reference value: 1.20%); type: functional
[6] = system: MCF7; test: Induction of apoptosis in human MCF7 cells assessed as late apoptotic cells at 20 nM measured after 48 hrs by annexin-FITC and propidium iodide staining based flow cytometry analysis (reference value: 3.93%); type: functional
[7] = system: MCF7; test: Induction of apoptosis in human MCF7 cells assessed as necrotic cells at 40 nM measured after 48 hrs by annexin-FITC and propidium iodide staining based flow cytometry analysis (reference value: 0.18%); type: functional
[8] = system: MCF7; test: Induction of apoptosis in human MCF7 cells assessed as upregulation of p53 protein level by Western blot analysis; type: functional, cell-based; settings: dose 10-40 nM
[9] = system: MCF7; test: Inhibition of colony formation in human MCF7 cells at 5 to 10 nM incubated for 48 hrs; type: functional, cell-based; settings: dose 5-10 nM
[10] = system: HUVEC; test: Anti-angiogenesis activity in human HUVEC cells assessed as disruption of capillary tube formation at 30 nM incubated for 6 hrs by inverted microscopic analysis; type: functional, cell-based
[11] = system: HUVEC; test: Anti-angiogenesis activity in human HUVEC cells assessed as disruption of capillary tube formation at 60 nM incubated for 6 hrs by inverted microscopic analysis relative to control; type: functional
[12] = system: HT-29; test: Antiproliferative activity against human HT-29 cells assessed as inhibition of cell growth measured after 48 hrs by MTT assay; type: functional, cell-based; settings: HT-29, 48 h
[13] = system: DU-145; test: Antiproliferative activity against human DU-145 assessed as inhibition of cell growth measured after 48 hrs by MTT assay; type: functional, cell-based; settings: DU-145, 48 h
[14] = system: MGC-803; test: Antiproliferative activity against human MGC-803 assessed as inhibition of cell growth measured after 48 hrs by MTT assay; type: functional, cell-based; settings: MGC-803, 48 h
[15] = Resistance index, ratio of IC50 for antiproliferative activity against paclitaxel resistant human A2780/Taxol cells to IC50 for antiproliferative activity against human A2780 cells; type: functional
[16] = system: MDA-MB-231; test: Downregulation of MMP-9 expression in human MDA-MB-231 cells at 5 to 40 nM by Western blot analysis; type: functional, cell-based; settings: dose 5-40 nM
[17] = Acute toxicity in ICR mouse assessed as animal death at 50 mg/kg, ip measured after upto 14 days; type: organism-based; settings: in vivo, 336 h, time < 14 day
[18] = Acute toxicity in ICR mouse assessed as animal death at 100 mg/kg, ip measured after 3 to 14 days; type: organism-based; settings: in vivo, time 3-14 day
[19] = Acute toxicity in ICR mouse assessed as animal death at 200 mg/kg, ip measured after 3 to 14 days; type: organism-based; settings: in vivo, time 3-14 day
[20] = Acute toxicity in ICR mouse assessed as animal death at 300 mg/kg, ip measured after 2 days; type: organism-based; settings: in vivo, 48 h, time 2 day
[21] = Acute toxicity in ICR mouse assessed as survival rate at 100 mg/kg, ip measured after 14 days relative to control; type: organism-based; settings: in vivo, time 14 day
[22] = Toxicity in Balb/C nude mouse assessed as effect on body weight loss at 15 mg/kg, ip measured upto 2 weeks; type: organism-based; settings: in vivo, 336 h
[23] = system: MDA-MB-231; test: Antitumor activity against human MDA-MB-231 cells xenografted in BALB/c nude mouse model assessed as inhibition of tumor growth weight administered as IP dose measured after 14 days; type: functional; settings: dose 7.5-15 mg/kg, time 14.0 day
[24] = system: MDA-MB-231; test: Antitumor activity against human MDA-MB-231 cells xenografted in BALB/c nude mouse model assessed as inhibition of tumor growth volume administered as IP dose measured after 14 days; type: functional; settings: dose 7.5-15 mg/kg, time 14.0 day
[25] = system: MDA-MB-231; test: Antitumor activity against human MDA-MB-231 cells xenografted in BALB/c nude mouse model assessed as increase in tumor necrosis at 7.5 to 15 mg/kg, ip measured after 14 days by H and E staining based analysis; type: functional, organism-based; settings: dose 7.5-15 mg/kg, time 14.0 day
[26] = Toxicity in Balb/C nude mouse assessed as abnormalities in lung at 7.5 to 15 mg/kg, ip measured after 14 days by H and E staining based analysis; type: organism-based; settings: in vivo, 336 h, dose 7.5-15 mg/kg, time 14 day
[27] = Toxicity in Balb/C nude mouse xenografted with A549/Taxol assessed as effect on kidney at 15 mg/kg, ip measured after 14 days by H and E staining based analysis; type: organism-based, A549/TR; settings: in vivo, 336 h, time 14 day
[28] = Tmax in mouse at 3 mg/kg, iv measured upto 24 hrs by LC-MS/MS analysis; type: ADME, organism-based; settings: in vivo
[29] = AUC (0 to t) in mouse at 15 mg/kg, po measured upto 24 hrs by LC-MS/MS analysis; type: ADME, organism-based; settings: in vivo
[30] = MRT (0 to infinity) in mouse at 15 mg/kg, po measured upto 24 hrs by LC-MS/MS analysis; type: ADME, organism-based; settings: in vivo

Chain of Katanin p60 ATPase-containing subunit A1 (O75449 whole entry, the tested form may be a part): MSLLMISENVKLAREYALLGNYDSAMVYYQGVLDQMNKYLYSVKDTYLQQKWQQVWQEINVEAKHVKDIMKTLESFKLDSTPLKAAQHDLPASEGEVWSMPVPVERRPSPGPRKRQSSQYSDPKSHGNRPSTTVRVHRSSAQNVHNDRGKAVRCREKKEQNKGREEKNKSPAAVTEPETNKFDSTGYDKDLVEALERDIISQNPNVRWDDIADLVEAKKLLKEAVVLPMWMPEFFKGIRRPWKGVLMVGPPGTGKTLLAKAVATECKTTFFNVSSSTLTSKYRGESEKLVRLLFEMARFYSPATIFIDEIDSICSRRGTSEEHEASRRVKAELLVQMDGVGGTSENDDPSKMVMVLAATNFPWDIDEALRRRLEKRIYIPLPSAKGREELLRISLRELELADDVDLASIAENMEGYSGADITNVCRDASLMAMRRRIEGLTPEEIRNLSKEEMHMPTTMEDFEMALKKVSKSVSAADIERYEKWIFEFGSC

Compound: COc1cc(-n2cnc3ccc(-c4ccc(C)c(N)c4)nc32)cc(OC)c1OC
- Activity [1]: Active
- Activity [2]: inactive
- Activity [3]: Active
- viability at 0.02 µM [4]: 46.6%
- Activity [5]: 31.28%
- Activity [6]: 21.54%
- Activity [7]: 0.36%
- Activity [8]: Dose-Dependent Effect
- inhibition [9]: Active
- Activity [10]: Active
- Activity [11]: 100%
- IC50 [12]: 11 nM
- IC50 [13]: 4 nM
- IC50 [14]: 0.5 nM
- Ratio IC50 [15]: 1.54
- Activity [16]: Active
- Activity [17]: Non-Toxic
- Activity [18]: Non-Toxic
- Activity [19]: Non-Toxic
- Activity [20]: Non-Toxic
- survival at 336 h [21]: 80%
- Activity [22]: Non-Toxic
- Activity [23]: Dose-Dependent Effect
- Activity [24]: Dose-Dependent Effect
- Activity [25]: Active
- Activity [26]: Non-Toxic
- Activity [27]: Non-Toxic
- Tmax [28]: 4.8 min
- AUC(0-t) at 24 h [29]: 1240 ng·h/mL
- MRT inf [30]: 2.47 h
